This is an account of results in ChEMBL document CHEMBL1201862, “PubChem BioAssay data set” (2004).

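Results reflect a 48-hour exposure of cells in 96-well plates to compound at five concentrations. GI50 marks 50% less growth.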 The source made the active and inactive calls. Cut-off read from the data, not from the text of the source: active = GI50 up to about 1.1 µM and inactive = higher.

Common to all, as to assay: NCI-60 cell line screen, 48 h
The test system of assay [1] is UACC-62.
In assay [2] the test system is SNB-75.
The subject of assay [3] is K562.
Assay [4] has as its system OVCAR-8.
In assay [5] the test system is SF-268.
Assay [6] deals with NCI-H460.
In assay [7] the test system is SF-539.
Assay [8] concerns IGROV-1.
Assay [9] has as its system COLO 205.
For assay [10], the system named is SK-MEL-28.
Assay [11] relates to HCT-15.
Assay [12] concerns HOP-92.
The subject of assay [13] is UACC-257.
In assay [14] the test system is UO-31.
The subject of assay [15] is CAKI-1.
In assay [16] the test system is U-251.
The subject of assay [17] is RXF 393.
Assay [18] has as its system EKVX.
Assay [19] deals with SK-MEL-5.
In assay [20] the test system is SK-OV-3.

Turning to `COc1cc2c(cc1O)CCN(C)[C@H]2Cc1ccc(Oc2c(O)c(OC)cc3c2C[C@H]2c4c(c(OC)c(OC)c(OC)c4-3)CCN2C)cc1` [THALIFABERIDINE], the GI50 was 3.97 µM (inactive) in [1]; 4.51 µM (inactive) in assay [2]; 0.966 µM (active) in assay [3]; 4.16 µM (inactive) in [4]; 5.66 µM (inactive) in assay [5]; 2.09 µM (inactive) in [6]. The GI50 is 5.9 µM (inactive) in [7]; 5.43 µM (inactive) in assay [8]; 7.08 µM (inactive) in assay [9]; 6.56 µM (inactive) in assay [10]; 4.43 µM in [11]; 1.69 µM (inactive) in assay [12]. Further, the GI50 was 7.01 µM (inactive) in assay [13]; 4.98 µM (inactive) in [14]; 5.06 µM (inactive) in assay [15]; 4.38 µM (inactive) in [16]; 1.75 µM (inactive) in assay [17]; 5.92 µM (inactive) in assay [18]. For the same molecule, the GI50 in [19] was 2.9 µM (inactive); in assay [20], 5.42 µM (inactive).

Regarding `NCC[Se][Se]CCN`, the GI50 in assay [1] was 17.3 µM (inactive); in assay [2] it was 10.6 µM (inactive); in assay [3], 16.6 µM (inactive); in [4], 10.6 µM (inactive); in assay [5], 16 µM (inactive); in [6], 6.4 µM (inactive). Further, the GI50 in assay [7] is 10.6 µM (inactive); in assay [8], 9.23 µM (inactive); in assay [9] it was 4.06 µM (inactive); in [10] it was 13.3 µM (inactive); in [11] it was 6.24 µM; in assay [12], 19.3 µM (inactive). Further, the GI50 in assay [13] is 7.06 µM (inactive); in assay [14], 4.42 µM (inactive); in [15], 10.7 µM (inactive); in assay [16], 7.41 µM (inactive); in [17], 15.6 µM (inactive); in assay [18], 5.38 µM (inactive). Besides, the figures for the GI50 in assay [19] and in assay [20] were 5.66 µM (inactive) and 8.15 µM (inactive), respectively.
